# Source: the NIST ThermoML archive (doi:10.1016/j.jct.2017.03.032)
# ± gives the expanded uncertainty stated by the source.
# Settings: Liquid, Closed cell (Static) method
smiles,measurement,setting,value
"F/C=C/C(F)(F)F [trans-1,3,3,3-tetrafluoropropene]",vapor or sublimation pressure,280.15 K,276.5 ± 20 kPa
same,vapor or sublimation pressure,285.18 K,328.2 ± 20 kPa
same,vapor or sublimation pressure,290.12 K,386 ± 20 kPa
same,vapor or sublimation pressure,295.11 K,452.1 ± 20 kPa
same,vapor or sublimation pressure,300.15 K,526.7 ± 20 kPa
same,vapor or sublimation pressure,305.15 K,609.7 ± 20 kPa
same,vapor or sublimation pressure,310.34 K,706.3 ± 20 kPa
same,vapor or sublimation pressure,315.18 K,805 ± 20 kPa
same,vapor or sublimation pressure,320.1 K,916.6 ± 20 kPa
same,vapor or sublimation pressure,325.17 K,1043.5 ± 20 kPa
same,vapor or sublimation pressure,330.13 K,1178.1 ± 20 kPa
